The record followed here is US20260200929A1, “PYRROLO[3,2-D]PYRIMIDIN-4-ONE DERIVATIVE, AND PREPARATION METHOD THEREFOR AND MEDICAL USE THEREOF” (SHENZHEN SALUBRIS PHARMACEUTICALS CO., LTD., priority 2022, published 2026).

Read-outs that look alike come from different tables or passages of the source. Some results are limits rather than exact numbers.

In general, IC50 refers to the concentration at which inhibition is half-maximal. A low value points to greater potency. As a reminder, the AUC(0-t) is the area under the concentration-time curve up to a stated or last time point. A lower AUC(0-t) goes with low exposure. As a reminder, the Cmax is the maximum level reached in the sampled fluid or tissue. As a reminder, the clearance is the rate of elimination divided by the concentration. The low end stands for a low capacity for elimination, the high end for a high capacity for elimination. By half-life is commonly meant the time in which the quantity being followed falls by half. Higher therefore signals slow loss.

For data set [1], the target named is T1, human myeloperoxidase (hMPO) (Homo sapiens, UniProt P05164).
T1 construct: purchased PLANTANATURAL 700-03-001
Nature of the data set: Inhibition of human myeloperoxidase (hMPO) peroxidation cycle in vitro. It counts as biochemical. The settings on record: 3'-(p-aminophenyl) fluorescein and H2O2 at Km. The procedure:
50 μL of 2×substrate (composed of 3′-(p-aminophenyl) fluorescein and H2O2, with 3′-(p-aminophenyl) fluorescein and H2O2 both at Km concentration, purchased from Invitrogen, A36003) to a black opaque low-protein-adsorption 96-well plate (purchased from PerkinElmer, 6005270), and 45 μL of 2×compound at different concentrations (DMSO final concentration of 1%) was added. After thorough blowing and uniform mixing of a mixture, […] of […] human myeloperoxidase (purchased from PLANTANATURAL, 700-03-001) was added and mixed uniformly, and an enzyme-linked immunosorbent assay reader was immediately used at a wavelength of Ex/Em:488/520 nm to read fluorescence values for 0-30 minutes (read every 20 seconds) using a dynamic mode. Different concentrations of compound inhibitors were calculated: inhibition rate (%)=[1−(Slopecontrol−Slopecpd)/SlopeControl−SlopeBlank)]*100, where SlopeBlank is a slope of a control without the compound and an MPO well at 0-5 minutes ([…] reading/reaction time t); SlopeControl is a slope of the well without the compound (containing 1% DMSO) at 0-5 minutes (linear reaction stage); and Slopecpd is a slope of the compound at 0-5 minutes. Using a logarithmic value of the compound concentration as an abscissa and the inhibition rate as an ordinate, a 4-parameter nonlinear regression curve was fitted to calculate the IC50 value (Y=Bottom+(Top-Bottom)/(1+10^((Log IC50−X)*HillSlope)), where Hillslope represents the slope of the fitted curve, and IC50 represents the half inhibitory concentration. Test results were shown in Table 1.

A further data set concerns the target CYP3A (Homo sapiens, UniProt P08684). Nature of the data set: Enzyme inhibition test, CYP3A in human liver microsomes. It counts as in vitro ADME. The settings on record: 0.2 mg/mL human liver microsomes. As for the experimental part:
Material: midazolam and testosterone were purchased from Cerilliant and PANPHY; ketoconazole was purchased from MCE; and human liver microsomes were purchased from Corning.
The inhibitory potential of the compound on cytochrome P450 enzyme CYP3A was evaluated using a phosphate buffer saline (100 mM, pH 7.4) system containing 0.2 mg/mL human liver microsomes. The test concentrations of the compound were 0.068 μM, 0.206 μM, 0.62 μM, 1.85 μM, 5.56 μM, 16.67 μM, and 50 μM. The positive substrates in the incubation system were 1 μM midazolam and 40 μM testosterone (CYP3A), respectively. The concentration of the positive inhibitor ketoconazole (CYP3A) in the incubation system was 0.05 μM. Incubation was carried out at 37° C., and an NADPH solution with a final concentration of 1 mM was added to initiate a reaction. The incubation time was 10 minutes. After incubation, all samples were added to 300 μL of acetonitrile solution containing 3% formic acid and internal standard (0.5 μM tolbutamide) to precipitate the protein, and the metabolic product generation of the labeled substrate was detected by UPLC-MS/MS to calculate an IC50 value of compound inhibition.

Data set [2] is described as follows: Pharmacokinetic study in rats. It counts as in vivo, SD rats. The conditions noted are these: for F: 5 mg/kg p.o versus 1 mg/kg i.v; for AUC(0-t) / Cmax / clearance / half-life: male, SD, rat, plasma. An excerpt:
SD rats: male, 180-350 g, purchased from Zhejiang Vital River Laboratory Animal Technology Co., Ltd.
Reagents: dimethyl sulfoxide (DMSO), polyethylene glycol 400 (PEG-400), normal saline, acetonitrile, formic acid, propranolol (internal standard) are all commercially available.
Instrument: Thermo Fisher Scientific LC-MS (Ultimate 3000 UPLC, TSQ QUANTUMN ULTRA triple quadrupole mass spectrometer).
The compound was weighed and dissolved in a DMSO-PEG-400 normal saline (5:60:35, v/v/v) system. After intravenous administration or intragastric administration to rats, 200 μL of venous blood was collected in an EDTA-K2 anticoagulation tube at 15 minutes, 30 minutes, 1 hour, 2 hours, 5 hours, 7 hours, and 24 hours (additional 5 minutes for an IV group) and centrifuged at 12000 rpm for 2 minutes. Plasma was taken and frozen and preserved at −80° C. for testing. A certain amount of samples for test was precisely weighed and dissolved in DMSO to 2 mg/mL as a stock solution. An appropriate amount of compound stock solution was accurately sucked, and diluted by adding acetonitrile to prepare a standard series solution. 4 μL of each of the above standard series solution was accurately sucked, and added to 36 µL of blank plasma, vortex mixing was performed to prepare plasma samples equivalent to plasma concentrations of 1 ng/mL, 3 ng/mL, 5 ng/mL, 10 ng/mL, 30 ng/mL, 100 ng/mL, 300 ng/mL, 1000 ng/mL, and 3000 ng/mL. Dual sample analysis was performed for each concentration to establish a standard curve. 30 μL of plasma (5-fold dilution of plasma of intravenous administration for 5 minutes, 15 minutes, and 30 minutes) was taken, a propranolol acetonitrile solution (internal standard, 50 ng/mL) was added to precipitate the protein, after 100 μL water was added for even vortex mixing, centrifugation was performed at 4000 rpm for 5 minutes, and supernatants were taken for LC-MS/MS analysis. LC-MS detection conditions were as follows: • chromatographic column: YMC-Triart C18 50×3.0 mmI.D. S-3 μm, 12 nm
A mobile phase A: water (0.1% formic acid), a mobile phase B: acetonitrile, a flow rate: 0.5 mL/min, gradient elution: […]
After LC-MS detection of blood drug concentration, WinNonlin 6.1 software was used to calculate pharmacokinetic parameters using non compartmental model method.

The test system of the next data set is CYP2B6. Nature of the data set: Enzyme induction test, CYP2B6 mRNA level in human primary hepatocytes. It is filed as in vitro ADME. The settings on record: CYP2B6, 10 μM, 3 days. An excerpt: (§1) Material: Williams' Medium E (without phenol red) was purchased from Sigma Aldrich Trading Co., Ltd; Williams+ Medium E, Recombinant human insulin, GlutaMAX, and HEPES were purchased from Life Technologies; Isotonic Percoll was purchased from General Electric; Fetal bovine serum was purchased from Corning; Dexamethasone was commercially available; CellTiter-Fluor™ Cell Viability Assay kit was purchased from Promega; Taqman Gene Expression Assay probe (20×, CYP1A2, FAM labeled), Taqman Gene Expression Assay probe (20×, CYP2B6, FAM labeled), Taqman Gene Expression Assay probe (20×, CYP3A4, FAM labeled), and Taqman Gene Expression Assay probe (20×, ACTB, VIC labeled) were purchased from AB (Applied Biosystems); and human primary hepatocytes were purchased from BioIVT.
(§2) The test compound, a positive inducer, a negative inducer, and internal standard were accurately weighed to prepare a stock solution with the corresponding concentration. A cell thawing solution and incubation buffer were prepared, and related reagents and consumables of mRNA extraction, reverse transcription, and fluorescence quantitative PCR were prepared.
(§3) The frozen human primary hepatocytes were thawed and inoculated onto a suitable cell culture plate at a certain density for monolayer cell culture to meet cell growth requirements. […]

In the next data set the test system is CYP1A2. As to the kind of experiment: Enzyme induction test, CYP1A2 mRNA level in human primary hepatocytes. The conditions noted are these: CYP1A2, 10 μM, 3 days. It counts as in vitro ADME.
Description: as §1, §2, §3

Another data set concerns CYP3A4. Nature of the data set: Enzyme induction test, CYP3A4 mRNA level in human primary hepatocytes. The settings on record: CYP3A4, 10 μM, 3 days. It is filed as in vitro ADME.
Description: as §1, §2, §3

Where [3] appears, read: pH 7.4, probe midazolam (1 μM), CYP3A (Midazolam).
The mark [4] stands for this setting: pH 7.4, probe testosterone (40 μM), CYP3A (Testosterone).

T1 sequence (P05164 279-745 limits assumed): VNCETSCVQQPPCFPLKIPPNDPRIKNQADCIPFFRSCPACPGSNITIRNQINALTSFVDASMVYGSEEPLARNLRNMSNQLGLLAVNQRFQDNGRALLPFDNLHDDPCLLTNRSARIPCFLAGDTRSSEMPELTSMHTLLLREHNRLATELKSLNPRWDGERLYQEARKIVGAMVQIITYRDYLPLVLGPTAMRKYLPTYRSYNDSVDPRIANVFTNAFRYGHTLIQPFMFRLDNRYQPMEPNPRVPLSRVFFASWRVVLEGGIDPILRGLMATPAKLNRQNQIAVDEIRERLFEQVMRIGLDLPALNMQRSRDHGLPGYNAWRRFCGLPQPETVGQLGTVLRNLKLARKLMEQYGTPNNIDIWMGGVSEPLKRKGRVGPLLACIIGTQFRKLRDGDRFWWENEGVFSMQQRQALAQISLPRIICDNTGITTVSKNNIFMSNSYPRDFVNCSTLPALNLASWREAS
T1 sequence (P05164 165-273 limits assumed): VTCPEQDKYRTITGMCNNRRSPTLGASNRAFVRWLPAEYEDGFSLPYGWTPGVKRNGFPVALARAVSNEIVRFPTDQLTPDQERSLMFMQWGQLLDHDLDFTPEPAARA
CYP3A, sequence (P08684 2-503): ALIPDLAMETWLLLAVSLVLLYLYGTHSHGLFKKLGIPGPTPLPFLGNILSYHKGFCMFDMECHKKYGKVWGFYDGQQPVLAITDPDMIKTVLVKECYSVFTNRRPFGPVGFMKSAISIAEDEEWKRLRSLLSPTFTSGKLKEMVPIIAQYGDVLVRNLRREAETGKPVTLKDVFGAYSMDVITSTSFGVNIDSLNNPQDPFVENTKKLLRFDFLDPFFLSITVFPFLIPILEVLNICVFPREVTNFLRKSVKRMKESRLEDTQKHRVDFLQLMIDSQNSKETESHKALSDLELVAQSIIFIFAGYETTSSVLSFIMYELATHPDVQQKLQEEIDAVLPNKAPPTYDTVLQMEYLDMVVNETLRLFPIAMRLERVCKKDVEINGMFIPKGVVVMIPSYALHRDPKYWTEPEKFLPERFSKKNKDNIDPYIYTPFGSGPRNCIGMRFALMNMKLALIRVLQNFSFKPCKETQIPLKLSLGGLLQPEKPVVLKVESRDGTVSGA

In turn, `NC1CCOc2c(Cl)ccc(Cn3c(=S)[nH]c(=O)c4[nH]ccc43)c21` (stereo not drawn) [Compound 5, 1-((4-amino-8-chlorochroman-5-yl)methyl)-2-thio-1,2,3,5-tetrahydro-4H-pyrrolo[3,2-d]pyrimidin-4-one] came in with an IC50 in data set [1] of 0.0161 µM.
For the compound `N[C@@H]1CCCOc2cccc(Cn3c(=S)[nH]c(=O)c4[nH]ccc43)c21` (single isomer, unassigned) [Compound 15A, 1-((5-amino-2,3,4,5-tetrahydrobenzo[b]oxypyrimidin-6-yl)methyl)-2-thio-1,2,3,5-tetrahydroxy-4H-pyrrolo[3,2-d]pyrimidin-4-one], in data set [1], the IC50 is 0.00992 µM.
Still for that read-out and setting: as for `Cc1c[nH]c2c(=O)[nH]c(=S)n(Cc3cccc4c3C(N)CCO4)c12` (stereo not drawn) [Compound 16], the figure is 0.0196 µM.
On to `N[C@@H]1CCCc2cccc(Cn3c(=S)[nH]c(=O)c4[nH]ccc43)c21` (single isomer, unassigned) [Compound 7A, 1-((8-amino-5,6,7,8-tetrahydronaphthalene-1-yl)methyl)-2-thio-1,2,3,5-tetrahydro-4H-pyrrolo[3,2-d]pyrimidin-4-one], for which the IC50 at 10 min is > 50 µM against CYP3A (setting [3]) and 19.7 µM at CYP3A (setting [4]). In data set [2], this compound displayed an F of 83.3%. The AUC(0-t) in data set [2] (iv, 1 mg/kg i.v) amounted to 0.293 µg·h/mL; in data set [2] (po, 5 mg/kg p.o), 1.22 µg·h/mL. For the same compound, the Cmax in data set [2] (iv, 1 mg/kg i.v) was found to be 0.8 µg/mL; in data set [2] (po, 5 mg/kg p.o) it was 0.5 µg/mL. For the same compound, the clearance in data set [2] (iv, 1 mg/kg i.v) worked out at 3.16 L/h/kg. In addition, the half-life was 2.59 h in data set [2] (iv, 1 mg/kg i.v) and 3.44 h in data set [2] (po, 5 mg/kg p.o). In addition, the “mRNA Relative positive induction percentage” value is listed as 8.41% in the data set with CYP2B6, 0.15% with CYP1A2 and 7.93% in the data set with CYP3A4. The compound also came in with an IC50 in data set [1] of 0.00483 µM.
`COc1c[nH]c2c(=O)[nH]c(=S)n(Cc3cccc4c3C(N)CCO4)c12` (stereo not drawn) [Compound 17, 1-((4-aminochroman-5-yl)methyl)-7-methoxyl-2-thio-1,2,3,5-tetrahydro-4H-pyrrolo[3,2-d]pyrimidin-4-one]: the IC50 in data set [1] amounted to 0.0234 µM.
In data set [2], `NC1CCOc2cccc(Cn3c(=S)[nH]c(=O)c4[nH]ccc43)c21` (stereo not drawn) [Compound 6, 1-((4-aminochroman-5-yl)methyl)-2-thio-1,2,3,5-tetrahydro-4H-pyrrolo[3,2-d]pyrimidin-4-one] registered an F of 48.6%. Moreover, in data set [2] (iv, 1 mg/kg i.v), the AUC(0-t) was 0.827 µg·h/mL, the clearance is 1.19 L/h/kg and the half-life was 3.36 h. In addition, the Cmax in data set [2] (iv, 1 mg/kg i.v, read-out: Cmax) amounted to 0.62 µg/mL. In data set [2] (po, 5 mg/kg p.o), this compound gave an AUC(0-t) of 2.01 µg·h/mL and a half-life of 5.13 h. Besides, the Cmax in data set [2] (po, 5 mg/kg p.o, read-out: Cmax) is 0.305 µg/mL. The IC50 in data set [1] stood at 0.00802 µM.
For the compound `N[C@@H]1CCOc2cccc(Cn3c(=S)[nH]c(=O)c4[nH]ccc43)c21` (single isomer, unassigned) [Compound 6A], the values for the IC50 at 10 min against CYP3A (setting [3]) and against CYP3A (setting [4]) were > 50 µM and 27.3 µM, respectively. The same compound had a F in data set [2] of 57.2%. Moreover, the AUC(0-t) in data set [2] (iv, 1 mg/kg i.v) was 1.27 µg·h/mL; in data set [2] (po, 5 mg/kg p.o) it was 3.63 µg·h/mL. The Cmax in data set [2] (iv, 1 mg/kg i.v) was found to be 1.9 µg/mL; in data set [2] (po, 5 mg/kg p.o), 1.7 µg/mL. This compound yielded a clearance in data set [2] (iv, 1 mg/kg i.v) of 0.78 L/h/kg. The half-life in data set [2] (iv, 1 mg/kg i.v) is 4.98 h; in data set [2] (po, 5 mg/kg p.o) it was 3.66 h. For the same compound, the “mRNA Relative positive induction percentage” value in the data set on CYP2B6 is reported as 1.68%; in the data set on CYP1A2 it was −0.29%; in the data set with CYP3A4, 2.10%. Also, the IC50 in data set [1] was determined as 0.00464 µM.
`NC1CCCc2cccc(Cn3c(=S)[nH]c(=O)c4[nH]ccc43)c21` (stereo not drawn) [Compound 7, 1-((8-amino-5,6,7,8-tetrahydronaphthalene-1-yl)methyl)-2-thio-1,2,3,5-tetrahydro-4H-pyrrolo[3,2-d]pyrimidin-4-one] yielded an IC50 in data set [1] of 0.0107 µM.
On the same count and under the same terms, under `NC1COc2cccc(Cn3c(=S)[nH]c(=O)c4[nH]ccc43)c21` (stereo not drawn) [Compound 3] stands 0.031 µM.
The same measure, in the same setting: under `NC1COc2c(Cl)ccc(Cn3c(=S)[nH]c(=O)c4[nH]ccc43)c21` (stereo not drawn) [Compound 2, 1-((3-amino-7-chloro-2,3-dihydrobenzofuran-4-yl)methyl)-2-thio-1,2,3,5-tetrahydro-4H-pyrrolo[3,2-d]pyrimidin-4-one] stands 0.033 µM.
Still for that read-out and setting: under `NC1CCc2c(Cl)ccc(Cn3c(=S)[nH]c(=O)c4[nH]ccc43)c21` (stereo not drawn) [Compound 1, 1-((3-amino-7-chloro-2,3-dihydro-1H-inden-4-yl)methyl)-2-thio-1,2,3,5-tetrahydro-4H-pyrrolo[3,2-d]pyrimidin-4-one] stands 0.0516 µM.
